Measured values: US9771333B2, “Quinazoline derivatives as TAM family kinase inhibitors” (SIGNALCHEM LIFESCIENCES CORP., priority 2013, dated 2017)
pIC50: −log10 of the molar value.

Legend:
Format in all cases: biochemical
human Axl = molecular target: T1, human Axl (Homo sapiens, UniProt P30530); experiment: Kinase enzymatic activity assay (33P-radiolabeled phosphate transfer), Axl; conditions: recombinant human Axl (473-end), poly(4:1 glu:tyr) substrate, 30 minutes
T1 construct: GST (N); made in house; host or cells: Sf9 insect cells (baculovirus)
T1 sequence (P30530 473-894 limits assumed): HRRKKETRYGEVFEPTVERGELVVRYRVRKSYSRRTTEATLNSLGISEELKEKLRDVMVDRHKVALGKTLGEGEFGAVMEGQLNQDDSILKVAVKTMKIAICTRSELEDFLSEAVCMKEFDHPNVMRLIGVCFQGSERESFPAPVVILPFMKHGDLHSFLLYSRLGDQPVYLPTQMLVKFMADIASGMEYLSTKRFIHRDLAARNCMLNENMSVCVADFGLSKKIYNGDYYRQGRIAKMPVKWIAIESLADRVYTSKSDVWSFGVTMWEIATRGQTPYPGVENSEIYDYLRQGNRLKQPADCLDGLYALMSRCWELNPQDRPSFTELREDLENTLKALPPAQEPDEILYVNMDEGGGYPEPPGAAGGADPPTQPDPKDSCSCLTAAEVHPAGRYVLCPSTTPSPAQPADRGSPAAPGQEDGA
Excerpt: (§1) The identification of compounds of the invention as Tyro3, Axl or Mer inhibitors was readily accomplished using the recombinant human Tyro3, Axl and Mer proteins and employing the ^33P-radiolabeled phosphate transfer assay for which the procedure is known to someone skilled in the art or as described in Example 9.
(§2) Recombinant human Tyro3 (455-end, the gene accession number NM_006293), human Axl (473-end, the gene accession number NM_021913) and human Mer (578-872, the gene accession number NM_006343) were independently expressed by baculovirus in Sf9 insect cells using an N-terminal GST tag. The recombinant proteins were stored at −70° C. in a medium containing 50 mM Tris-HCl, pH 7.5, 150 mM NaCl, 10 mM glutathione, 0.1 mM EDTA, 0.25 mM DTT, 0.1 mM PMSF and 25% glycerol. The recombinant proteins were aliquoted into smaller quantities after centrifugation to avoid repeated handling and multiple freeze/thaw cycles for the most favorable performance.
(§3) Kinase Assay Buffer: This buffer solution consisted of the following components: 25 mM MOPS, pH 7.2, 12.5 mM β-glycerol-phosphate, 25 mM MgCl2, 5 mM EGTA, 2 mM EDTA and DTT 0.25 mM which was added prior to use.
(§4) Kinase Dilution Buffer: Kinase Assay Buffer was diluted at a 1:4 ratio (5× dilution) with distilled water.
(§5) [^33P]-ATP assay cocktail: In a designated radioactive working area, a 250 μM [^33P]-ATP assay cocktail was prepared by the addition of the following components: 150 μL of 10 mM ATP stock solution, 100 μL [^33P]-ATP (1 mci/100 μL), and 5.75 mL of kinase assay buffer. This solution was stored in 1 mL aliquots at −20° C.
(§6) ATP stock solution (10 mM): The ATP stock solution was prepared by dissolving 55 mg of ATP in 10 mL of kinase assay buffer. It was stored in 200 μL aliquots at −20° C.
(§7) Active Kinase Stock Solution: The active recombinant kinase protein (0.1 μg/μL) was diluted with Kinase Dilution Buffer and the activity was assayed using a serial dilution method. The specific activity is expressed in nmoL/min/mg.
(§8) Substrates: poly(4:1 glu:tyr) is the substrate used for each kinase Tyro3, Axl and Mer: The peptide substrate was dissolved in water to give the final concentration of 1 mg/mL.
(§9) Test compound solution: Test compound was dissolved in DMSO to obtain a 10 mM solution. The assay solution was prepared by adding 5 μL of this solution to […] of 10% DMSO/water to obtain the final concentration of 50 μM.
(§10) The enzymatic activity of all three kinases was determined as follows. Using a 96-well plate, the wells were divided into three categories: Blank wells, […] and Test wells. In Test wells, 5 μL of the test compound solution and 5 μL of the substrate solution were added. In Control wells, 5 μL of 10% DMSO/water and 5 μL of the substrate solution were added. In Blank wells, 10 μL of 10% DMSO/water was added. To each well was added 10 μL of Active Kinase Stock Solution to make up the volume in each well to 20 μL. All test samples, controls and blanks were run in duplicate. The reaction was initiated by the addition of 5 μL of [^33P]-ATP assay cocktail, bringing the final volume up to 25 μL in every well. The mixture was incubated at room temperature for 30 minutes. The reaction was terminated by transferring 10 μL of the reaction mixture into a Millipore MultiScreen filter plate (cat. number MSPHN6B50). The filter plate was washed in a 1% phosphoric acid solution with constant gentle shaking for 15 minutes and this step was repeated once. After the plate was dried in air, scintillation fluid was added to each well and the radioactivity in each well in CPM was counted by a Microbeta TriLux. The corrected CPM in each test well was determined by subtracting the average value of Blank well values. Percentage of inhibition of the kinase enzymatic activity by the test compound was determined using the following formula: […]
(§11) The IC50 values were determined in a similar way following a serial dilution of the test compound. […]

human Tyro3 = molecular target: T2, human Tyro3 (Homo sapiens, UniProt Q06418); experiment: Kinase enzymatic activity assay (33P-radiolabeled phosphate transfer), Tyro3; conditions: recombinant human Tyro3 (455-end), poly(4:1 glu:tyr) substrate, 30 minutes
T2 construct: GST (N); made in house; host or cells: Sf9 insect cells (baculovirus)
T2 sequence (Q06418 455-890 limits assumed): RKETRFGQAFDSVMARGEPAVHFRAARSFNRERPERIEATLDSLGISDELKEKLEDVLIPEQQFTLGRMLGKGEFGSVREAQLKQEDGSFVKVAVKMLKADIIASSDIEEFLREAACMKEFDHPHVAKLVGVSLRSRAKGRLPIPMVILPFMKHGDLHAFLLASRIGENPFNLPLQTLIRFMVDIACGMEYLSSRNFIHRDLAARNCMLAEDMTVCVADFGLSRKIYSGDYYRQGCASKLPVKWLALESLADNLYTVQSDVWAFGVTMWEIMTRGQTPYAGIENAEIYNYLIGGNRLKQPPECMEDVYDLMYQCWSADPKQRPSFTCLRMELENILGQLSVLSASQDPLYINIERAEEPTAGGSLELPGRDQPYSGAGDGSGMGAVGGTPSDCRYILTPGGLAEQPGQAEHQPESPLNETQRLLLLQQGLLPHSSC
Excerpt: as §1, §2, §3, §4, §5, §6, §7, §8, §9, §10, §11

human Mer = molecular target: T3, human Mer (Homo sapiens, UniProt Q12866); experiment: Kinase enzymatic activity assay (33P-radiolabeled phosphate transfer), Mer; conditions: recombinant human Mer (578-872), poly(4:1 glu:tyr) substrate, 30 minutes
T3 construct: GST (N); made in house; host or cells: Sf9 insect cells (baculovirus)
T3 sequence (Q12866 578-872): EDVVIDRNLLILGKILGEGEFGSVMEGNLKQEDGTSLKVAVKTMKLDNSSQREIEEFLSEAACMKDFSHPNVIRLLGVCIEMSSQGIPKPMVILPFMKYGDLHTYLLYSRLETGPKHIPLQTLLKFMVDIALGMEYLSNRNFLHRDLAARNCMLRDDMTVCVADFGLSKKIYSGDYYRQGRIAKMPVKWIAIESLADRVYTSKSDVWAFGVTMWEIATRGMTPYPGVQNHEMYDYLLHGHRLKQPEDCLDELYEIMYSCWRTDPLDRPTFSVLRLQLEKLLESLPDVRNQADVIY
Excerpt: as §1, §2, §3, §4, §5, §6, §7, §8, §9, §10, §11

SMILES	pIC50 (human Axl)	pIC50 (human Tyro3)	pIC50 (human Mer)
Fc1ccc(Oc2ncnc3cc(OCCN4CCCCC4)cc(OC4CCOCC4)c23)c(Cl)c1 [Example 1, 4-(2-chloro-4-fluorophenoxy)-7-(2-(piperidin-1-yl)ethoxy)-5-((tetrahydro-2H-pyran-4-yl)oxy)quinazoline]	5.00 to 6.00	> 6.30	> 6.30
Fc1ccc(Oc2ncnc3cc(OCCN4CCOCC4)cc(OC4CCOCC4)c23)c(Cl)c1 [Example 2.1, 4-(2-((4-(2-chloro-4-fluorophenoxy)-5-((tetrahydro-2H-pyran-4-yl)oxy)-quinazolin-7-yl)oxy)ethyl)morpholine]	5.00 to 6.00	5.00 to 6.00	6.00 to 6.30
Fc1ccc(Oc2ncnc3cc(OCCCN4CCOCC4)cc(OC4CCOCC4)c23)c(Cl)c1 [Example 2.5, 4-(3-((4-(2-chloro-4-fluorophenoxy)-5-((tetrahydro-2H-pyran-4-yl)oxy)quinazolin-7-yl)oxy)propyl)morpholine]	6.00 to 6.30	> 6.30	> 6.30
CC1(C)OC[C@H](COc2cc(OC3CCOCC3)c3c(Oc4ccc(F)cc4Cl)ncnc3c2)O1 [Example 2.9, (S)-4-(2-chloro-4-fluorophenoxy)-7-((2,2-dimethyl-1,3-dioxolan-4-yl)methoxy)-5-((tetrahydro-2H-pyran-4-yl)oxy)quinazoline]	5.00 to 6.00	5.00 to 6.00	5.00 to 6.00
COCCN1CCN(c2cc(OC3CCOCC3)c3c(Oc4ccc(F)cc4Cl)ncnc3c2)CC1 [Example 2.10, 4-(2-chloro-4-fluorophenoxy)-7-(4-(2-methoxyethyl)piperazin-1-yl)-5-((tetrahydro-2H-pyran-4-yl)oxy)quinazoline]	5.00 to 6.00	> 6.30	6.00 to 6.30
COc1cc(OCCN2CCN(C)CC2)cc2ncnc(Oc3ccc(F)cc3Cl)c12 [Example 2.12, 4-(2-chloro-4-fluorophenoxy)-5-methoxy-7-(2-(4-methylpiperazin-1-yl)ethoxy)quinazoline]	5.00 to 6.00	> 6.30	5.00 to 6.00
COc1cc(OCC2CCN(C)CC2)cc2ncnc(Nc3nc(C(F)(F)F)cs3)c12 [Example 2.13, N-(5-methoxy-7-((1-methylpiperidin-4-yl)methoxy)quinazolin-4-yl)-4-(trifluoromethyl)thiazol-2-amine]	> 6.30	< 5.00	< 5.00
CN(C)CCC1CCN(c2cc(OC3CCOCC3)c3c(Nc4nc(C(F)(F)F)cs4)ncnc3c2)CC1 [Example 2.44, N-(7-(4-(2-(dimethylamino)ethyl)piperidin-1-yl)-5-((tetrahydro-2H-pyran-4-yl)oxy)quinazolin-4-yl)-4-(trifluoromethyl)thiazol-2-amine]	> 6.30	5.00 to 6.00	

The remaining lines, values ahead:

pIC50 (human Axl)	pIC50 (human Tyro3)	pIC50 (human Mer)	SMILES
5.00 to 6.00	> 6.30	> 6.30	CN1CCC(CCOc2cc(OC3CCOCC3)c3c(Oc4ccc(F)cc4Cl)ncnc3c2)CC1 [Example 2, 4-(2-chloro-4-fluorophenoxy)-7-(2-(1-methylpiperidin-4-yl)ethoxy)-5-((tetrahydro-2H-pyran-4-yl)oxy)quinazoline]
5.00 to 6.00	> 6.30	> 6.30	CN(C)CCOCCOc1cc(OC2CCOCC2)c2c(Oc3ccc(F)cc3Cl)ncnc2c1 [Example 2.2, 2-(2-((4-(2-chloro-4-fluorophenoxy)-5-((tetrahydro-2H-pyran-4-yl)oxy)quinazolin-7-yl)oxy)ethoxy)-N,N-dimethylethanamine]
< 5.00	6.00 to 6.30	5.00 to 6.00	COCCN(C)CCOc1cc(OC2CCOCC2)c2c(Oc3ccc(F)cc3Cl)ncnc2c1 [Example 2.3, 2-((4-(2-chloro-4-fluorophenoxy)-5-((tetrahydro-2H-pyran-4-yl)oxy)quinazolin-7-yl)oxy)-N-(2-methoxyethyl)-N-methylethanamine]
< 5.00	5.00 to 6.00	5.00 to 6.00	COCCOCCOc1cc(OC2CCOCC2)c2c(Oc3ccc(F)cc3Cl)ncnc2c1 [Example 2.4, 4-(2-chloro-4-fluorophenoxy)-7-(2-(2-methoxyethoxy)ethoxy)-5-((tetrahydro-2H-pyran-4-yl)oxy)quinazoline]
